Results from patent US12539292B2, “BRM targeting compounds and associated methods of use” (Arvinas Operations, Inc., priority 2018, dated 2026).

Molecular target: T1, BRM (Homo sapiens, UniProt P51531)
T1 construct: In-Cell Western Screen of BRM Degradation in SW1573 Cells; endogenous in cells; host or cells: SW1573
Assay: In-cell Western screen of BRM degradation in SW1573 cells (Dmax and DC50)
Assay type: cell-based
Conditions: BRM degradation, SW1573 cells; for DC50: read-out: DC50; for Dmax: read-out: Dmax (% degraded)
How it was run: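 SW1573 cells were treated overnight (18-20 hours) with compound at 0.1% final DMSO. They were then PFA-fixed, permeabilised with Triton X-100 and immunostained with 800 nm/680 nm secondary antibodies. BRM signal was quantified by LI-COR in-cell Western imaging to derive Dmax and DC50.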

T1 sequence (P51531 whole entry): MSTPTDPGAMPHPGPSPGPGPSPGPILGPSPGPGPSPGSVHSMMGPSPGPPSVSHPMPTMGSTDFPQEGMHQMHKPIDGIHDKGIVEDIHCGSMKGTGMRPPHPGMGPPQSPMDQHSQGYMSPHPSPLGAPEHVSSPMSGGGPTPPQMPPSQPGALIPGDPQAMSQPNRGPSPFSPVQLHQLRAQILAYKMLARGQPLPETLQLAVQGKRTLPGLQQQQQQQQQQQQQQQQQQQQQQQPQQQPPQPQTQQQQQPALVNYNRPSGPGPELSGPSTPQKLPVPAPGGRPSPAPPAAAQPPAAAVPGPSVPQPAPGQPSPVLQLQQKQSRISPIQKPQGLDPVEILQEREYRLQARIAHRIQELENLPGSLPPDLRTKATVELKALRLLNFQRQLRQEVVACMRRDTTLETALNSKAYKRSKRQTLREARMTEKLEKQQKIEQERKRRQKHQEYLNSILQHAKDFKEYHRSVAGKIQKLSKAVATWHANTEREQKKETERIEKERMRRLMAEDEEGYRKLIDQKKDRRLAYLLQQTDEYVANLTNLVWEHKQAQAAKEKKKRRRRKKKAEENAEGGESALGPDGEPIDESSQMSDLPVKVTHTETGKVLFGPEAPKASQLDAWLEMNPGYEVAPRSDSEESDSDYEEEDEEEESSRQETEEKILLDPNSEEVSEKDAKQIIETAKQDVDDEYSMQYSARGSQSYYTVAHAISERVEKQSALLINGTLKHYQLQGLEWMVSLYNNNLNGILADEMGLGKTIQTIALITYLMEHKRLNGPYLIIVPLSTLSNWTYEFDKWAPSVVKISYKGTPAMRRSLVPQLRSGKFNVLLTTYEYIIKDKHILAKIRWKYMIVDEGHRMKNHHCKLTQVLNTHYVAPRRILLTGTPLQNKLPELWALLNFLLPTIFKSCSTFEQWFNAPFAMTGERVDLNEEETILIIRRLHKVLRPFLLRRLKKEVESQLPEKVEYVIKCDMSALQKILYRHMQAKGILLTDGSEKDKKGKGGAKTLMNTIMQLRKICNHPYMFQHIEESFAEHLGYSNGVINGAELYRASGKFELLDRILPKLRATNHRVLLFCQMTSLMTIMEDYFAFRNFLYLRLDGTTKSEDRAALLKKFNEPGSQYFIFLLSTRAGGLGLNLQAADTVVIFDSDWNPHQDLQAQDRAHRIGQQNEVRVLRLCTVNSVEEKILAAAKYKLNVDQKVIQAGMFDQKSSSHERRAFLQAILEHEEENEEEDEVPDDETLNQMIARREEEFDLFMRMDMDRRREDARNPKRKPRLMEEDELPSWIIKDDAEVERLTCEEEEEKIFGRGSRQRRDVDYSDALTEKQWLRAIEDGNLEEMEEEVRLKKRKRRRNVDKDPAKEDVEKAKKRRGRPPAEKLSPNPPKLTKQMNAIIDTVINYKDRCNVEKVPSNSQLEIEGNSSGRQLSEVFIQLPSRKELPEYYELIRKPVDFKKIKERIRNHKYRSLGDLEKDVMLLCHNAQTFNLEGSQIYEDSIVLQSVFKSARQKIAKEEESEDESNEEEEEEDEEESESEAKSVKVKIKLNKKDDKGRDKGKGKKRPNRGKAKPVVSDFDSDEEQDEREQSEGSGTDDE

Row | SMILES | DC50 [nM] | Dmax [%]
1 | Cc1ncsc1-c1ccc([C@H](C)NC(=O)[C@@H]2C[C@@H](O)CN2C(=O)[C@H](c2cc(N3CCC(C#CCN4CCC(Oc5cc(N6C7CCC6CN(c6cc(-c8ccccc8O)nnc6N)C7)ccn5)CC4)CC3)no2)C(C)C)cc1 [compound 676, (2S,4R)-1-((2S)-2-(3-(4-(3-(4-((4-(3-(3-amino-6-(2-hydroxyphenyl)pyridazin-4-yl)-3,8-diazabicyclo[3.2.1]octan-8-yl)pyridin-2-yl)oxy)piperidin-1-yl)prop-1-yn-1-yl)piperidin-1-yl)isoxazol-5-yl)-3-methylbutanoyl)-4-hydroxy-N-((S)-1-(4-(4-methylthiazol-5-yl)phenyl)ethyl)pyrrolidine-2-carboxamide] | 2.5 to 10 | > 75
2 | Cc1ncsc1-c1ccc([C@H](C)NC(=O)[C@@H]2C[C@@H](O)CN2C(=O)[C@@H](c2cc(N3CCC(C#CCN4CCC(Oc5cc(N6C7CCC6CN(c6cc(-c8ccccc8O)nnc6N)C7)ccn5)CC4)CC3)no2)C(C)C)cc1 [compound 677, (2S,4R)-1-((2R)-2-(3-(4-(3-(4-((4-(3-(3-amino-6-(2-hydroxyphenyl)pyridazin-4-yl)-3,8-diazabicyclo[3.2.1]octan-8-yl)pyridin-2-yl)oxy)piperidin-1-yl)prop-1-yn-1-yl)piperidin-1-yl)isoxazol-5-yl)-3-methylbutanoyl)-4-hydroxy-N-((S)-1-(4-(4-methylthiazol-5-yl)phenyl)ethyl)pyrrolidine-2-carboxamide] | < 2.5 | > 75
3 | C#Cc1ccc([C@H](C)NC(=O)[C@@H]2C[C@@H](O)CN2C(=O)[C@@H](c2cc(N3CCC(CN4CCC(O[C@H]5C[C@H](Oc6cc(N7C8CCC7CN(c7cc(-c9ccccc9O)nnc7N)C8)ccn6)C5)CC4)CC3)no2)C(C)C)cc1 [compound 678, (2S,4R)-1-((2R)-2-(3-(4-((4-((1r,3r)-3-((4-(3-(3-amino-6-(2-hydroxyphenyl)pyridazin-4-yl)-3,8-diazabicyclo[3.2.1]octan-8-yl)pyridin-2-yl)oxy)cyclobutoxy)piperidin-1-yl)methyl)piperidin-1-yl)isoxazol-5-yl)-3-methylbutanoyl)-N-((S)-1-(4-ethynylphenyl)ethyl)-4-hydroxypyrrolidine-2-carboxamide] | < 2.5 | > 75
4 | Cc1ncsc1-c1ccc([C@H](C)NC(=O)[C@@H]2C[C@@H](O)CN2C(=O)[C@@H](c2cc(N3CCC(CN4CCC(O[C@H]5C[C@H](Oc6cc(N7C8CCC7CN(c7cc(-c9ccccc9O)nnc7N)C8)ccn6)C5)CC4)CC3)no2)C(C)C)c(F)c1F [compound 679, (2S,4R)-1-((2R)-2-(3-(4-((4-((1r,3r)-3-((4-(3-(3-amino-6-(2-hydroxyphenyl)pyridazin-4-yl)-3,8-diazabicyclo[3.2.1]octan-8-yl)pyridin-2-yl)oxy)cyclobutoxy)piperidin-1-yl)methyl)piperidin-1-yl)isoxazol-5-yl)-3-methylbutanoyl)-N-((S)-1-(2,3-difluoro-4-(4-methylthiazol-5-yl)phenyl)ethyl)-4-hydroxypyrrolidine-2-carboxamide] | < 2.5 | > 75
5 | Cc1ncsc1-c1cc(F)c([C@H](C)NC(=O)[C@@H]2C[C@@H](O)CN2C(=O)[C@H](c2cc(N3CCC(CN4CCC(O[C@H]5C[C@H](Oc6cc(N7C8CCC7CN(c7cc(-c9ccccc9O)nnc7N)C8)ccn6)C5)CC4)CC3)no2)C(C)C)cc1F [compound 680, (2S,4R)-1-((2S)-2-(3-(4-((4-((1r,3r)-3-((4-(3-(3-amino-6-(2-hydroxyphenyl)pyridazin-4-yl)-3,8-diazabicyclo[3.2.1]octan-8-yl)pyridin-2-yl)oxy)cyclobutoxy)piperidin-1-yl)methyl)piperidin-1-yl)isoxazol-5-yl)-3-methylbutanoyl)-N-((S)-1-(2,5-difluoro-4-(4-methylthiazol-5-yl)phenyl)ethyl)-4-hydroxypyrrolidine-2-carboxamide] | > 30 | –
6 | Cc1ncsc1-c1cc(F)c([C@H](C)NC(=O)[C@@H]2C[C@@H](O)CN2C(=O)[C@@H](c2cc(N3CCC(CN4CCC(O[C@H]5C[C@H](Oc6cc(N7C8CCC7CN(c7cc(-c9ccccc9O)nnc7N)C8)ccn6)C5)CC4)CC3)no2)C(C)C)cc1F [compound 681, (2S,4R)-1-((2R)-2-(3-(4-((4-((1r,3r)-3-((4-(3-(3-amino-6-(2-hydroxyphenyl)pyridazin-4-yl)-3,8-diazabicyclo[3.2.1]octan-8-yl)pyridin-2-yl)oxy)cyclobutoxy)piperidin-1-yl)methyl)piperidin-1-yl)isoxazol-5-yl)-3-methylbutanoyl)-N-((S)-1-(2,5-difluoro-4-(4-methylthiazol-5-yl)phenyl)ethyl)-4-hydroxypyrrolidine-2-carboxamide] | < 2.5 | > 75
7 | Cc1ncsc1-c1ccc([C@H](C)NC(=O)[C@@H]2C[C@@H](O)CN2C(=O)[C@H](c2cc(N3CCC(F)(CN4CCC(O[C@H]5C[C@H](Oc6cc(N7C8CCC7CN(c7cc(-c9ccccc9O)nnc7N)C8)ccn6)C5)CC4)CC3)no2)C(C)C)cc1 [compound 682, (2S,4R)-1-((2S)-2-(3-(4-((4-((1r,3r)-3-((4-(3-(3-amino-6-(2-hydroxyphenyl)pyridazin-4-yl)-3,8-diazabicyclo[3.2.1]octan-8-yl)pyridin-2-yl)oxy)cyclobutoxy)piperidin-1-yl)methyl)-4-fluoropiperidin-1-yl)isoxazol-5-yl)-3-methylbutanoyl)-4-hydroxy-N-((S)-1-(4-(4-methylthiazol-5-yl)phenyl)ethyl)pyrrolidine-2-carboxamide] | 2.5 to 10 | > 75
8 | Cc1ncsc1-c1ccc([C@H](C)NC(=O)[C@@H]2C[C@@H](O)CN2C(=O)[C@@H](c2cc(N3CCC(F)(CN4CCC(O[C@H]5C[C@H](Oc6cc(N7C8CCC7CN(c7cc(-c9ccccc9O)nnc7N)C8)ccn6)C5)CC4)CC3)no2)C(C)C)cc1 [compound 683, (2S,4R)-1-((2R)-2-(3-(4-((4-((1r,3r)-3-((4-(3-(3-amino-6-(2-hydroxyphenyl)pyridazin-4-yl)-3,8-diazabicyclo[3.2.1]octan-8-yl)pyridin-2-yl)oxy)cyclobutoxy)piperidin-1-yl)methyl)-4-fluoropiperidin-1-yl)isoxazol-5-yl)-3-methylbutanoyl)-4-hydroxy-N-((S)-1-(4-(4-methylthiazol-5-yl)phenyl)ethyl)pyrrolidine-2-carboxamide] | < 2.5 | > 75
9 | Cc1ncsc1-c1ccc([C@H](C)NC(=O)[C@@H]2C[C@@H](O)CN2C(=O)[C@H](c2cc(N3CCC(N4CCC(O[C@H]5C[C@H](Oc6cc(N7C8CCC7CN(c7cc(-c9ccccc9O)nnc7N)C8)ccn6)C5)CC4)CC3)no2)C(C)C)cc1 [compound 684, (2S,4R)-1-((2S)-2-(3-(4-((1r,3S)-3-((4-(3-(3-amino-6-(2-hydroxyphenyl)pyridazin-4-yl)-3,8-diazabicyclo[3.2.1]octan-8-yl)pyridin-2-yl)oxy)cyclobutoxy)-[1,4'-bipiperidin]-1'-yl)isoxazol-5-yl)-3-methylbutanoyl)-4-hydroxy-N-((S)-1-(4-(4-methylthiazol-5-yl)phenyl)ethyl)pyrrolidine-2-carboxamide] | 10 to 30 | 50 to 75
10 | Cc1ncsc1-c1ccc([C@H](C)NC(=O)[C@@H]2C[C@@H](O)CN2C(=O)[C@@H](c2cc(N3CCC(N4CCC(O[C@H]5C[C@H](Oc6cc(N7C8CCC7CN(c7cc(-c9ccccc9O)nnc7N)C8)ccn6)C5)CC4)CC3)no2)C(C)C)cc1 [compound 685, (2S,4R)-1-((2R)-2-(3-(4-((1r,3R)-3-((4-(3-(3-amino-6-(2-hydroxyphenyl)pyridazin-4-yl)-3,8-diazabicyclo[3.2.1]octan-8-yl)pyridin-2-yl)oxy)cyclobutoxy)-[1,4'-bipiperidin]-1'-yl)isoxazol-5-yl)-3-methylbutanoyl)-4-hydroxy-N-((S)-1-(4-(4-methylthiazol-5-yl)phenyl)ethyl)pyrrolidine-2-carboxamide] | < 2.5 | > 75
11 | Cc1ncsc1-c1ccc([C@@H](CCCC(=O)O)NC(=O)[C@@H]2C[C@@H](O)CN2C(=O)C(c2cc(OCCN3CCC(O[C@H]4C[C@H](Oc5cc(N6C7CCC6CN(c6cc(-c8ccccc8O)nnc6N)C7)ccn5)C4)CC3)no2)C(C)C)cc1 (stereo partly drawn) [compound 686, (5R)-5-((2S,4R)-1-(2-(3-(2-(4-((1r,3r)-3-((4-(3-(3-amino-6-(2-hydroxyphenyl)pyridazin-4-yl)-3,8-diazabicyclo[3.2.1]octan-8-yl)pyridin-2-yl)oxy)cyclobutoxy)piperidin-1-yl)ethoxy)isoxazol-5-yl)-3-methylbutanoyl)-4-hydroxypyrrolidine-2-carboxamido)-5-(4-(4-methylthiazol-5-yl)phenyl)pentanoic acid] | > 30 | –
12 | Cc1ncsc1-c1ccc([C@H](CCCC(=O)O)NC(=O)[C@@H]2C[C@@H](O)CN2C(=O)C(c2cc(OCCN3CCC(O[C@H]4C[C@H](Oc5cc(N6C7CCC6CN(c6cc(-c8ccccc8O)nnc6N)C7)ccn5)C4)CC3)no2)C(C)C)cc1 (stereo partly drawn) [compound 687, (5S)-5-((2S,4R)-1-(2-(3-(2-(4-((1r,3r)-3-((4-(3-(3-amino-6-(2-hydroxyphenyl)pyridazin-4-yl)-3,8-diazabicyclo[3.2.1]octan-8-yl)pyridin-2-yl)oxy)cyclobutoxy)piperidin-1-yl)ethoxy)isoxazol-5-yl)-3-methylbutanoyl)-4-hydroxypyrrolidine-2-carboxamido)-5-(4-(4-methylthiazol-5-yl)phenyl)pentanoic acid] | > 30 | –
